Experiments:
[1] = system: IL-17-induced GROα secretion from HT-29 cells; assay: GROα release assay in human colorectal adenocarcinoma epithelial cell (HT-29, ELISA); assay type: cell-based; conditions: Homo sapiens, HT-29, 48 h, 10 ng/mL IL-17A, highest concentration 10 μM, read-out: Cellular assay HT29 cell/CXCL1 IC50
Method in brief: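 HT-29 cells were exposed 48 h at 37°C to IL-17A (final 10 ng/mL) preincubated 15 min with compound (4-fold dilutions, top 10 μM). Secreted GROα was quantified by ELISA against a standard curve, and IC50 obtained by four-parameter fitting.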

[2] = target: human IL-17A / human IL-17RA (Homo sapiens (Human), UniProt Q16552); assay: Human IL-17A biochemical assay (HTRF, blocking of IL-17A binding to IL-17RA); conditions: 0.4 nM IL-17A, 0.3 nM IL-17RA, max compound concentration 10 uM
Chain of human IL-17A / human IL-17RA (Q16552 24-155): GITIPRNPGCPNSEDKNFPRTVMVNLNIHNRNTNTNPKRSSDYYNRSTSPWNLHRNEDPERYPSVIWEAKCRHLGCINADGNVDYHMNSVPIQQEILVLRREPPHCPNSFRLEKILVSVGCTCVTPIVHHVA
Method in brief: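 Recombinant human IL-17A (0.4 nM) was pre-incubated with compound (top 10 uM, 2.7-fold, 10 points) for 3 h at room temperature in 20 mM HEPES pH 7.5, 50 mM NaCl, 0.1% BSA, 0.2 mM DTT, 0.005% Tween 20. IL-17RA (0.3 nM) was then added for 1 h, followed by anti-6His Tb and anti-human IgG-XL665 detection for 1 h; IC50 from four-parameter fit.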

Compound | IC50 [1] [nM] | IC50 [2] [nM]
CNC(=O)C1(N2CC(C)(C)NC2=O)Cc2ccc(NC(=O)[C@@H](NC(=O)c3ccnn3C)C3CCCCC3)cc2C1 (stereo partly drawn) [Example 20, N-((1S)-1-cyclohexyl-2-((2-(4,4-dimethyl-2-oxoimidazolidin-1-yl)-2-(methylcarbamoyl)-2,3-dihydro-1H-inden-5-yl)amino)-2-oxoethyl)-1-methyl-1H-pyrazole-5-carboxamide] | 476 | 980
Cc1nonc1C(=O)N[C@H](C(=O)Nc1ccc2c(c1)CC(C(=O)NCC(C)C1CCCCC1)(N1CC3(CC3)CNC1=O)C2)C1CCC(F)(F)CC1 (stereo partly drawn) [Example 185, N-((1S)-2-((2-((2-cyclohexylpropyl)carbamoyl)-2-(6-oxo-5,7-diazaspiro[2.5]octan-5-yl)-2,3-dihydro-1H-inden-5-yl)amino)-1-(4,4-difluorocyclohexyl)-2-oxoethyl)-4-methyl-1,2,5-oxadiazole-3-carboxamide] | 275 | 119
CC(C)[C@@H]1CN(C2Cc3ccc(NC(=O)[C@@H](NC(=O)c4ccnn4C)C4CCCCC4)cc3C2)C(=O)N1 (stereo partly drawn) [Example 162, N-((1S)-1-cyclohexyl-2-((2-((R)-4-isopropyl-2-oxoimidazolidin-1-yl)-2,3-dihydro-1H-inden-5-yl)amino)-2-oxoethyl)-1-methyl-1H-pyrazole-5-carboxamide] | 1060 | 540
CC(C)[C@@H]1CN(C2(c3nc4ccccc4[nH]3)Cc3ccc(NC(=O)[C@@H](NC(=O)c4ccnn4C)C4CCCCC4)cc3C2)C(=O)N1 (stereo partly drawn) [Example 169, N-((1S)-2-((2-(1H-benzo[d]imidazol-2-yl)-2-((R)-4-isopropyl-2-oxoimidazolidin-1-yl)-2,3-dihydro-1H-inden-5-yl)amino)-1-cyclohexyl-2-oxoethyl)-1-methyl-1H-pyrazole-5-carboxamide] | 65.2 | 56.4
CNC(=O)C1(N2C[C@@H](C(C)C)NC2=O)Cc2ccc(NC(=O)[C@@H](NC(=O)c3ccnn3C3CC3)C3CCCCC3)cc2C1 (stereo partly drawn) [Example 129, N-((1S)-1-cyclohexyl-2-((2-((R)-4-isopropyl-2-oxoimidazolidin-1-yl)-2-(methylcarbamoyl)-2,3-dihydro-1H-inden-5-yl)amino)-2-oxoethyl)-1-cyclopropyl-1H-pyrazole-5-carboxamide] | 119 | 44
Cc1nonc1C(=O)N[C@H](C(=O)Nc1ccc2c(c1)CC(N1C[C@@H](C(F)(F)F)NC1=O)C2)C1CCC(F)(F)CC1 (stereo partly drawn) [Example 178, N-((1S)-1-(4,4-difluorocyclohexyl)-2-oxo-2-((2-((S)-2-oxo-4-(trifluoromethyl)imidazolidin-1-yl)-2,3-dihydro-1H-inden-5-yl)amino)ethyl)-4-methyl-1,2,5-oxadiazole-3-carboxamide] | 2210 | 3650
Cc1ccccc1NC(=O)C1(N2C[C@@H](C(C)C)NC2=O)Cc2ccc(NC(=O)[C@@H](NC(=O)c3nonc3C)C3CCC(F)(F)CC3)cc2C1 (stereo partly drawn) [Example 253, N-((1S)-1-(4,4-difluorocyclohexyl)-2-((2-((R)-4-isopropyl-2-oxoimidazolidin-1-yl)-2-(o-tolylcarbamoyl)-2,3-dihydro-1H-inden-5-yl)amino)-2-oxoethyl)-4-methyl-1,2,5-oxadiazole-3-carboxamide] | 331 | 355
Cn1nccc1C(=O)N[C@H](C(=O)Nc1ccc2c(c1)CC(C(=O)O)(N1CC3(CC3)CNC1=O)C2)C1CCCCC1 (stereo partly drawn) [Example 189, 5-((S)-2-cyclohexyl-2-(1-methyl-1H-pyrazole-5-carboxamido)acetamido)-2-(6-oxo-5,7-diazaspiro[2.5]octan-5-yl)-2,3-dihydro-1H-indene-2-carboxylic acid] | 124 | 15.3
CNC(=O)C1(N2C[C@@H](C(C)C)NC2=O)Cc2ccc(NC(=O)[C@@H](NC(=O)c3nonc3C)C3CCC(F)(F)CC3)cc2C1 (stereo partly drawn) [Example 116, N-((1S)-1-(4,4-difluorocyclohexyl)-2-((2-((R)-4-isopropyl-2-oxoimidazolidin-1-yl)-2-(methylcarbamoyl)-2,3-dihydro-1H-inden-5-yl)amino)-2-oxoethyl)-4-methyl-1,2,5-oxadiazole-3-carboxamide] | 415 | 69.1
CNC(=O)C1(N2CC(C)(C(F)(F)F)CNC2=O)Cc2ccc(NC(=O)[C@@H](NC(=O)c3ccnn3C)C3CCCCC3)cc2C1 (stereo partly drawn) [Example 179, N-((1S)-1-cyclohexyl-2-((2-(5-methyl-2-oxo-5-(trifluoromethyl)tetrahydropyrimidin-1(2H)-yl)-2-(methylcarbamoyl)-2,3-dihydro-1H-inden-5-yl)amino)-2-oxoethyl)-1-methyl-1H-pyrazole-5-carboxamide] | 51.6 | 10.9
Cc1nonc1C(=O)N[C@H](C(=O)Nc1ccc2c(c1)OC(CN1C[C@@H](C(F)(F)F)NC1=O)C2)C1CCC(F)(F)CC1 (stereo partly drawn) [Example 257, N-((1S)-1-(4,4-difluorocyclohexyl)-2-oxo-2-((2-(((S)-2-oxo-4-(trifluoromethyl)imidazolidin-1-yl)methyl)-2,3-dihydrobenzofuran-6-yl)amino)ethyl)-4-methyl-1,2,5-oxadiazole-3-carboxamide] | 2500 | 938
Cc1nonc1C(=O)N[C@H](C(=O)Nc1ccc2c(c1)CC(N1C[C@@H](C(F)(F)F)NC1=O)C2)C1CCCCC1 (stereo partly drawn) [Example 213, N-((1S)-1-cyclohexyl-2-oxo-2-((2-((S)-2-oxo-4-(trifluoromethyl)imidazolidin-1-yl)-2,3-dihydro-1H-inden-5-yl)amino)ethyl)-4-methyl-1,2,5-oxadiazole-3-carboxamide] | 4520 | 1760
CNC(=O)C1(N2CC(C)NC2=O)Cc2cc(NC(=O)[C@@H](NC(=O)c3ccnn3C)C3CCCCC3)sc2C1 (stereo partly drawn) [Example 9, N-((1S)-1-cyclohexyl-2-((5-(4-methyl-2-oxoimidazolidin-1-yl)-5-(methylcarbamoyl)-5,6-dihydro-4H-cyclopenta[b]thiophen-2-yl)amino)-2-oxoethyl)-1-methyl-1H-pyrazole-5-carboxamide] | > 10000 | 8000
Cn1nccc1C(=O)N[C@H](C(=O)Nc1ccc2oc(CN3C[C@@H](C(F)(F)F)NC3=O)cc2c1)C1CCCCC1 [Example 240, N-((S)-1-cyclohexyl-2-oxo-2-((2-(((S)-2-oxo-4-(trifluoromethyl)imidazolidin-1-yl)methyl)benzofuran-5-yl)amino)ethyl)-1-methyl-1H-pyrazole-5-carboxamide] | 264 | 200
CNC(=O)C1(N2CCNC2=O)Cc2ccc(NC(=O)[C@@H](NC(=O)c3ccnn3C)C3CCCCC3)cc2C1 (stereo partly drawn) [Example 13, N-((1S)-1-cyclohexyl-2-((2-(methylcarbamoyl)-2-(2-oxoimidazolidin-1-yl)-2,3-dihydro-1H-inden-5-yl)amino)-2-oxoethyl)-1-methyl-1H-pyrazole-5-carboxamide] | 1500 | 1800
Cc1nonc1C(=O)N[C@H](C(=O)Nc1ccc2c(c1)OC(CN1C[C@@H](C(F)(F)F)NC1=O)C2)C(C1CC1)C1CC1 (stereo partly drawn) [Example 255, N-((2S)-1,1-dicyclopropyl-3-oxo-3-((2-(((S)-2-oxo-4-(trifluoromethyl)imidazolidin-1-yl)methyl)-2,3-dihydrobenzofuran-6-yl)amino)propan-2-yl)-4-methyl-1,2,5-oxadiazole-3-carboxamide] | 666 | 165
CC[C@@H]1CN(C2(C(=O)NC)Cc3ccc(NC(=O)[C@@H](NC(=O)c4ccnn4C)C(C4CC4)C4CC4)cc3C2)C(=O)N1 (stereo partly drawn) [Example 166, N-((2S)-1,1-dicyclopropyl-3-((2-((R)-4-ethyl-2-oxoimidazolidin-1-yl)-2-(methylcarbamoyl)-2,3-dihydro-1H-inden-5-yl)amino)-3-oxopropan-2-yl)-1-methyl-1H-pyrazole-5-carboxamide] | 135 | 169
CCc1ccccc1NC(=O)C1(N2C[C@@H](C(C)C)NC2=O)Cc2ccc(NC(=O)[C@@H](NC(=O)c3nonc3C)C(C3CC3)C3CC3)cc2C1 (stereo partly drawn) [Example 289, N-((2S)-1,1-dicyclopropyl-3-((2-((2-ethylphenyl)carbamoyl)-2-((R)-4-isopropyl-2-oxoimidazolidin-1-yl)-2,3-dihydro-1H-inden-5-yl)amino)-3-oxopropan-2-yl)-4-methyl-1,2,5-oxadiazole-3-carboxamide] | 81.4 | 24.5
CNC(=O)C1(N2CC(C)CNC2=O)Cc2ccc(NC(=O)[C@@H](NC(=O)c3ccnn3C)C3CCCCC3)cc2C1 (stereo partly drawn) [Example 98, N-((1S)-1-cyclohexyl-2-((2-(5-methyl-2-oxotetrahydropyrimidin-1(2H)-yl)-2-(methylcarbamoyl)-2,3-dihydro-1H-inden-5-yl)amino)-2-oxoethyl)-1-methyl-1H-pyrazole-5-carboxamide] | 3280 | 628
C#CCC1CN(C2(C(=O)NC)Cc3ccc(NC(=O)[C@@H](NC(=O)c4ccnn4C)C4CCCCC4)cc3C2)C(=O)N1 (stereo partly drawn) [Example 63, N-((1S)-1-cyclohexyl-2-((2-(methylcarbamoyl)-2-(2-oxo-4-(prop-2-yn-1-yl)imidazolidin-1-yl)-2,3-dihydro-1H-inden-5-yl)amino)-2-oxoethyl)-1-methyl-1H-pyrazole-5-carboxamide] | 326 | 85
CNC(=O)C1(N2CC3(CC3)CNC2=O)Cc2ccc(NC(=O)[C@@H](NC(=O)C(F)(F)c3ccc(C#N)n3C)C3CCCCC3)cc2C1 (stereo partly drawn) [Example 176, 5-((S)-2-(2-(5-cyano-1-methyl-1H-pyrrol-2-yl)-2,2-difluoroacetamido)-2-cyclohexylacetamido)-N-methyl-2-(6-oxo-5,7-diazaspiro[2.5]octan-5-yl)-2,3-dihydro-1H-indene-2-carboxamide] | 290 | 69.9
